Literature values, collected in EP0341603A2, “Atrial peptide derivatives” (ABBOTT LABORATORIES, priority 1988, dated 1989).
Bridge positions count the residues as written; N and C are the ends. Ends that are not written are not given here.

Settings: relative to furosemide

alpha-hANP: alpha-human atrial natriuretic polypeptide isolated from human atrium, a polypeptide consisting of 28 amino acids (SLRRSSCFGGRMDRIGAQSGLGCNSFRY; disulfide 7-23 (inferred); ends not checked; UniProt P01160 124-151, looked up)
diuretic action, times as strong as that of furosemide: about 1000 times
